Experimental data taken from patent publication US4681872A (priority 1985, dated 1987).
In brackets after ≈: the same amount, converted by molar mass. Where two headings read alike, the source gives them in different places.

Columns and labels:
Strep. faecium ATCC 8043 = test: antimicrobial spectrum, agar dilution MIC; assay type: cell-based; details: BHI agar, 35°-37° C., 20-24 hours
[1] = system: Strep. pyogenes M79061-98; test: antimicrobial spectrum, agar dilution MIC; assay type: cell-based; details: BHI agar, 35°-37° C., 20-24 hours
Bact. fragilis 784 [2] = details: BHI agar, 35°-37° C., 20-24 hours
[3] = system: Lactobacillus Casei ATCC 7469; test: antimicrobial spectrum, agar dilution MIC; details: BHI agar, 35°-37° C., 20-24 hours
Strep. pyogenes 930 = test: antimicrobial spectrum, agar dilution MIC; details: BHI agar, 35°-37° C., 20-24 hours
Micrococcus luteus 9341 = test: antimicrobial spectrum, agar dilution MIC; details: BHI agar, 35°-37° C., 20-24 hours
E. coli SS = test: antimicrobial spectrum, agar dilution MIC; details: BHI agar, 35°-37° C., 20-24 hours
[4] = system: Klebsiella pneumoniae 8045; test: antimicrobial spectrum, agar dilution MIC; details: BHI agar, 35°-37° C., 20-24 hours
[5] = system: Pseudomonas aeruginosa BMH10; test: antimicrobial spectrum, agar dilution MIC; details: BHI agar, 35°-37° C., 20-24 hours
[6] = system: Pseudomonas aeruginosa 5007; test: antimicrobial spectrum, agar dilution MIC; details: BHI agar, 35°-37° C., 20-24 hours
Micrococcus luteus 4698 = test: antimicrobial spectrum, agar dilution MIC; details: BHI agar, 35°-37° C., 20-24 hours
[7] = human, in vivo; cited from earlier work
Bact. fragilis 784 [8] = test: microbe, parasite or virus in culture; details: Bacteroides fragilis
Bact. fragilis UC-2 = test: microbe, parasite or virus in culture; details: Bacteroides fragilis, UC2

Row | SMILES | MIC (Strep. faecium ATCC 8043) | MIC [1] | MIC (Bact. fragilis 784 [2]) | MIC [3] | MIC (Strep. pyogenes 930) [µg/mL] | MIC (Micrococcus luteus 9341) | MIC (E. coli SS) | MIC [4] [µg/mL] | MIC [5] [µg/mL] | MIC [6] [µg/mL] | MIC (Micrococcus luteus 4698) | serum half-life [7] [h] | MIC (Bact. fragilis 784 [8]) [µg/mL] | MIC (Bact. fragilis UC-2) [µg/mL]
1 | CCC1OC(=O)C(C)C(OC2CC(C)(OC)CC(C)O2)C(C)C(OC2OC(C)CC(N(C)C)C2O)C(C)(O)CC(C)C(=O)C(C)C2OC(=O)OC12C (centres unmarked) [4"-deoxyerythromycin A 11,12-carbonate] | .05 µg/mL (≈ 0.0672 µM) | .12 µg/mL (≈ 0.161 µM) | .4 µg/mL (≈ 0.538 µM) | .01 µg/mL (≈ 0.0134 µM) | 100 (≈ 134 µM) | .02 µg/mL (≈ 0.0269 µM) | .2 µg/mL (≈ 0.269 µM) | 25 (≈ 33.6 µM) | 50 (≈ 67.2 µM) | 100 (≈ 134 µM) | .1 µg/mL (≈ 0.134 µM) | – | – | –
2 | CC[C@H]1OC(=O)[C@H](C)[C@@H](O[C@H]2C[C@@](C)(OC)[C@@H](O)[C@H](C)O2)[C@H](C)[C@@H](O[C@@H]2O[C@H](C)C[C@H](N(C)C)[C@H]2O)[C@](C)(O)C[C@@H](C)C(=O)[C@H](C)[C@@H](O)[C@]1(C)O [Erythromycin A, reference compound] | – | – | – | – | – | – | – | – | – | – | – | 2 to 3 | 1.6 (≈ 2.18 µM) | 1.6 (≈ 2.18 µM)
